Data on five molecules can be found in US9409908B2 (priority 2012, dated 2016).

Where a name gives a salt, the structure may show the parent alone. Read-outs that look alike come from different tables or passages of the source.

A word on the Ki: it is the dissociation constant of the complex between target and ligand, obtained from inhibition or displacement.

For data set [1] the following is noted: rcm bond, Grubbs II, 40.0 °C.
For data set [2] the following is noted: from C=CC[C@H](NC(=O)OC(C)(C)C)c1cc(-c2ccncc2NC(=O)[C@H](C)C=C)ccn1; rcm bond; 12-membered ring; Grubbs II/pTsOH; CH2Cl2; 5.2 mM; 40.0 °C.
In data set [3] the target is purified human Factor XIa (Homo sapiens (Human), UniProt P03951). Description: biochemical. Format: biochemical. Particulars: read-out: Factor XIa Ki.
The target of data set [4] is purified human plasma kallikrein (Homo sapiens (Human), UniProt P03952). Description: biochemical. Particulars: read-out: Plasma Kallikrein Ki. The data set is classed as biochemical.
Chain of purified human plasma kallikrein (P03952 whole entry, looked up): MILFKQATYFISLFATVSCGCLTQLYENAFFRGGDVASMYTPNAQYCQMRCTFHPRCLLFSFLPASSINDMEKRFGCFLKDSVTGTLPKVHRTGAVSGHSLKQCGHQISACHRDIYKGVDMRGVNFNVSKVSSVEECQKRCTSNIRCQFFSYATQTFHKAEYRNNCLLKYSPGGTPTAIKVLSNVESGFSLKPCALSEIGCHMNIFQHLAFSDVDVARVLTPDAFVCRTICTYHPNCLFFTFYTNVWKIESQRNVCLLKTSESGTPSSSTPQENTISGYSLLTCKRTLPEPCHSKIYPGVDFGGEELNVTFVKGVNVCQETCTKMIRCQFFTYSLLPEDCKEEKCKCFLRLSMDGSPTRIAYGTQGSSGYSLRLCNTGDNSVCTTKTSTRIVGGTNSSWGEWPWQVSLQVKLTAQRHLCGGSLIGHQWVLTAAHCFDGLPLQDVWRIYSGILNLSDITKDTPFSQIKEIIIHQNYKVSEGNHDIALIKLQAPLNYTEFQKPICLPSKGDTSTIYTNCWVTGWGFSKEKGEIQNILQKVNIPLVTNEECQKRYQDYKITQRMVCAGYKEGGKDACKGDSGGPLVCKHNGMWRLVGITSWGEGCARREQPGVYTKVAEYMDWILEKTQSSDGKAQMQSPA
Chain of purified human plasma kallikrein (P03952 whole entry partner, looked up): as the sequence (P03952 whole entry, looked up) above

Chain of purified human Factor XIa (P03951 whole entry, looked up): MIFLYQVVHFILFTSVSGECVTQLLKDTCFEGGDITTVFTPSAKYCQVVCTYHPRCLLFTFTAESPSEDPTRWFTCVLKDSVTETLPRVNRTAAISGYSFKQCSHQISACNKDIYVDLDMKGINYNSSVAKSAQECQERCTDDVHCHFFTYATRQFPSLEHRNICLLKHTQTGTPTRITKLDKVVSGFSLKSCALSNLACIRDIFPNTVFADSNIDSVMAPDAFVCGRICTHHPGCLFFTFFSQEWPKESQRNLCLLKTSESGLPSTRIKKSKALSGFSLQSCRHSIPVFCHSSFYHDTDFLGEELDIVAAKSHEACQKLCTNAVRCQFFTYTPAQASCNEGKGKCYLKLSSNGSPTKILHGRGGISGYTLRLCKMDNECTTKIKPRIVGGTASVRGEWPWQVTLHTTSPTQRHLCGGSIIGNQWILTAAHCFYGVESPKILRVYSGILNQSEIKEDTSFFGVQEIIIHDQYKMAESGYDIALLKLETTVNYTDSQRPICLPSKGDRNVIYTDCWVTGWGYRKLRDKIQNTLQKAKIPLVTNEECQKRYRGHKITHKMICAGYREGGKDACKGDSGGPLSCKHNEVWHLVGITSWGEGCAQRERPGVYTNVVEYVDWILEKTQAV
Chain of purified human Factor XIa (P03951 whole entry partner, looked up): as the sequence (P03951 whole entry, looked up) above

Regarding `COC(=O)Nc1ccc2c(c1)C(=O)NC/C=C/C[C@H](NC(=O)OC(C)(C)C)c1cc-2ccn1`, in data set [1] (from C=CCNC(=O)c1cc(NC(=O)OC)ccc1-c1ccnc([C@H](CC=C)NC(=O)OC(C)(C)C)c1, DCM, […], 3.0 h), the ring closure, yield of all isomers was found to be 39.4%.
The molecule `COC(=O)Nc1ccc2c(c1)NC(=O)[C@H](C)/C=C/C[C@H](NC(=O)OC(C)(C)C)c1nc-2cn1COCC[Si](C)(C)C` displayed a ring closure, yield of all isomers in data set [1] (from C=CC[C@H](NC(=O)OC(C)(C)C)c1nc(-c2ccc(NC(=O)OC)cc2NC(=O)[C@H](C)C=C)cn1COCC[Si](C)(C)C, dichloromethane, 9.73 mM, 21.5 h) of 74%.
`C[C@@H]1/C=C/C[C@H](NC(=O)OC(C)(C)C)c2cc(ccn2)-c2ccccc2NC1=O` yielded a ring closure, yield of all isomers in data set [1] (from C=CC[C@H](NC(=O)OC(C)(C)C)c1cc(-c2ccccc2NC(=O)[C@H](C)C=C)ccn1, dichloromethane, 11.8 mM, 4.5 h) of 78%.
As to `C[C@@H]1/C=C/C[C@H](NC(=O)OC(C)(C)C)c2cc(ccn2)-c2ccncc2NC1=O`, in data set [2], the ring closure, yield after HPLC came to 7.3%. In data set [1] (from C=CC[C@H](NC(=O)OC(C)(C)C)c1cc(-c2ccncc2NC(=O)[C@H](C)C=C)ccn1, CH2Cl2, 5.06 mM, 24.0 h), this molecule yielded a ring closure, yield of all isomers of 7.3%.
Turning to `C[C@@H]1CCC[C@H](N2CCC(c3c(F)ccc(Cl)c3F)=CC2=O)c2cc(ccn2)-c2cn[nH]c2NC1=O` [Example 221, 13-[4-(3-chloro-2,6-difluorophenyl)-6-oxo-1,2,3,6-tetrahydropyridin-1-yl]-9-methyl-4,5,7,15-tetraazatricyclo[12.3.1.0^2,6]octadeca-1(18),2(6),3,14,16-pentaen-8-one, 2TFA salt], the Ki was > 417 nM in data set [3] and 1320 nM in data set [4].
